From BindingDB's records for doi:10.1021/acs.jmedchem.9b01508 (Virginia Tech, 2020)

Assay: Inhibition of human SphK2 expressed in Saccharomyces cerevisiae KYA1 assessed as yeast growth measured after 24 hrs

| SMILES | EC50 |
| --- | --- |
| N=C(N)N1CCC[C@H]1c1nc(-c2ccc(OCc3ccc(C(F)(F)F)cc3)c(C(F)(F)F)c2)no1 | 0.059 µM |
| N=C(N)N1CCC[C@H]1c1nc(-c2ccc(OCc3ccc(C(F)(F)F)cc3)c(C3CC3)c2)no1 | 0.05 µM |
| CC(C)(C)c1cc(-c2noc([C@@H]3CCCN3C(=N)N)n2)ccc1OCc1ccc(C(F)(F)F)cc1 | 0.073 µM |

Second part, the compound after the results:

| EC50 | SMILES |
| --- | --- |
| 0.037 µM | CCCc1cc(-c2noc([C@@H]3CCCN3C(=N)N)n2)ccc1OCc1ccc(C(F)(F)F)cc1 |
| 0.146 µM | CCc1cc(-c2noc([C@@H]3CCCN3C(=N)N)n2)ccc1OCc1ccc(C(F)(F)F)cc1 |
| 0.032 µM | CC(C)c1cc(-c2noc([C@@H]3CCCN3C(=N)N)n2)ccc1OCc1ccc(C(F)(F)F)cc1 |
| 0.084 µM | C=CCc1cc(-c2noc([C@@H]3CCCN3C(=N)N)n2)ccc1OCc1ccc(C(F)(F)F)cc1 |
